Assay results published in PubChem BioAssay (NCI).
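Values below derive from 48-hour exposures of cells grown in 96-well plates, with endpoints linearly interpolated between the two concentrations bracketing the appropriate inhibition level. At the GI50, growth is halved. TGI is the concentration that stops growth completely.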

Tests used:
Experiment in all cases: inhibition of tumour cell growth, NCI panel, 48 h
786-0 renal = tested on: 786-0 renal
A498 renal = tested on: A498 renal
A549 NSCLC = tested on: A549 NSCLC
ACHN renal = tested on: ACHN renal
BT-549 breast = tested on: BT-549 breast
CAKI-1 renal = tested on: CAKI-1 renal
CCRF-CEM leukemia = tested on: CCRF-CEM leukemia
COLO 205 colon = tested on: COLO 205 colon
DU-145 prostate = tested on: DU-145 prostate
EKVX NSCLC = tested on: EKVX NSCLC
HCC-2998 colon = tested on: HCC-2998 colon
HCT-116 colon = tested on: HCT-116 colon
HCT-15 colon = tested on: HCT-15 colon
HL-60(TB) leukemia = tested on: HL-60(TB) leukemia
HOP-62 NSCLC = tested on: HOP-62 NSCLC
HOP-92 NSCLC = tested on: HOP-92 NSCLC
HS 578T breast = tested on: HS 578T breast
HT29 colon = tested on: HT29 colon
IGROV1 ovarian = tested on: IGROV1 ovarian
K-562 leukemia = tested on: K-562 leukemia
KM12 colon = tested on: KM12 colon
LOX IMVI melanoma = tested on: LOX IMVI melanoma
M14 melanoma = tested on: M14 melanoma
MALME-3M melanoma = tested on: MALME-3M melanoma
MCF7 breast = tested on: MCF7 breast
MDA-MB-231 breast = tested on: MDA-MB-231 breast
MDA-MB-435 = tested on: MDA-MB-435
NCI-H226 lung = tested on: NCI-H226 lung
NCI-H23 lung = tested on: NCI-H23 lung
NCI-H460 lung = tested on: NCI-H460 lung
NCI-H522 lung = tested on: NCI-H522 lung
NCI/ADR-RES ovarian = tested on: NCI/ADR-RES ovarian
OVCAR-3 ovarian = tested on: OVCAR-3 ovarian
OVCAR-4 ovarian = tested on: OVCAR-4 ovarian
OVCAR-5 ovarian = tested on: OVCAR-5 ovarian
OVCAR-8 ovarian = tested on: OVCAR-8 ovarian
PC-3 prostate = tested on: PC-3 prostate
RPMI-8226 leukemia = tested on: RPMI-8226 leukemia
RXF 393 renal = tested on: RXF 393 renal
SF-268 CNS = tested on: SF-268 CNS
SF-295 CNS = tested on: SF-295 CNS
SK-MEL-2 melanoma = tested on: SK-MEL-2 melanoma
SK-MEL-28 melanoma = tested on: SK-MEL-28 melanoma
SK-MEL-5 melanoma = tested on: SK-MEL-5 melanoma
SK-OV-3 ovarian = tested on: SK-OV-3 ovarian
SN12C renal = tested on: SN12C renal
SNB-19 CNS = tested on: SNB-19 CNS
SNB-75 CNS = tested on: SNB-75 CNS
SR leukemia = tested on: SR leukemia
SW-620 colon = tested on: SW-620 colon
T-47D breast = tested on: T-47D breast
TK-10 renal = tested on: TK-10 renal
U251 CNS = tested on: U251 CNS
UACC-257 melanoma = tested on: UACC-257 melanoma
UACC-62 melanoma = tested on: UACC-62 melanoma
UO-31 renal = tested on: UO-31 renal
MOLT-4 leukemia = tested on: MOLT-4 leukemia
SF-539 CNS = tested on: SF-539 CNS

COc1cc([C@@H]2c3cc4c(cc3[C@H](OC3OC5COC(c6ccccc6)OC5C(O)C3O)[C@H]3COC(=O)[C@H]23)OCO4)cc(OC)c1OC (stereo not given in full)
GI50 (786-0 renal): 0.594 µM | TGI (786-0 renal): 19.6 µM | GI50 (A498 renal): 0.364 µM | TGI (A498 renal): 3.4 µM | GI50 (A549 NSCLC): 0.344 µM | TGI (A549 NSCLC): 5.68 µM | GI50 (ACHN renal): 0.596 µM | TGI (ACHN renal): 12.7 µM | GI50 (BT-549 breast): 0.333 µM | TGI (BT-549 breast): 1.99 µM | GI50 (CAKI-1 renal): 0.378 µM | TGI (CAKI-1 renal): 22.2 µM | GI50 (CCRF-CEM leukemia): 0.57 µM | GI50 (COLO 205 colon): 0.28 µM | TGI (COLO 205 colon): 0.935 µM | GI50 (DU-145 prostate): 0.324 µM | TGI (DU-145 prostate): 2.04 µM | GI50 (EKVX NSCLC): 0.426 µM | TGI (EKVX NSCLC): 24.2 µM | GI50 (HCC-2998 colon): 0.367 µM | TGI (HCC-2998 colon): 4.7 µM | GI50 (HCT-116 colon): 0.346 µM | GI50 (HCT-15 colon): 0.281 µM | TGI (HCT-15 colon): 13.7 µM | GI50 (HL-60(TB) leukemia): 0.342 µM | TGI (HL-60(TB) leukemia): 1.46 µM | GI50 (HOP-62 NSCLC): 0.456 µM | TGI (HOP-62 NSCLC): 5.32 µM | GI50 (HOP-92 NSCLC): 2.73 µM | TGI (HOP-92 NSCLC): 18.8 µM | GI50 (HS 578T breast): 0.303 µM | TGI (HS 578T breast): 1.67 µM | GI50 (HT29 colon): 0.356 µM | TGI (HT29 colon): 2.32 µM | GI50 (IGROV1 ovarian): 0.337 µM | TGI (IGROV1 ovarian): 1.34 µM | GI50 (K-562 leukemia): 0.359 µM | TGI (K-562 leukemia): > 100 µM | GI50 (KM12 colon): 0.326 µM | TGI (KM12 colon): 1.55 µM | GI50 (LOX IMVI melanoma): 0.427 µM | TGI (LOX IMVI melanoma): 2.84 µM | GI50 (M14 melanoma): 0.351 µM | TGI (M14 melanoma): 17.9 µM | GI50 (MALME-3M melanoma): 1.17 µM | TGI (MALME-3M melanoma): 4.89 µM | GI50 (MCF7 breast): 0.279 µM | TGI (MCF7 breast): 4.2 µM | GI50 (MDA-MB-231 breast): 0.422 µM | TGI (MDA-MB-231 breast): 29 µM | GI50 (MDA-MB-435): 0.245 µM | TGI (MDA-MB-435): 3.08 µM | GI50 (NCI-H226 lung): 4.58 µM | TGI (NCI-H226 lung): 37.6 µM | GI50 (NCI-H23 lung): 0.418 µM | TGI (NCI-H23 lung): 14.5 µM | GI50 (NCI-H460 lung): 0.282 µM | TGI (NCI-H460 lung): 2.92 µM | GI50 (NCI-H522 lung): 0.322 µM | TGI (NCI-H522 lung): 3.3 µM | GI50 (NCI/ADR-RES ovarian): 0.4 µM | TGI (NCI/ADR-RES ovarian): 3 µM | GI50 (OVCAR-3 ovarian): 0.282 µM | TGI (OVCAR-3 ovarian): 0.711 µM | GI50 (OVCAR-4 ovarian): 0.663 µM | TGI (OVCAR-4 ovarian): 11.8 µM | GI50 (OVCAR-5 ovarian): 2.58 µM | TGI (OVCAR-5 ovarian): 22.5 µM | GI50 (OVCAR-8 ovarian): 0.355 µM | TGI (OVCAR-8 ovarian): 2.12 µM | GI50 (PC-3 prostate): 0.432 µM | TGI (PC-3 prostate): 22.5 µM | GI50 (RPMI-8226 leukemia): 0.263 µM | TGI (RPMI-8226 leukemia): 1 µM | GI50 (RXF 393 renal): 0.264 µM | TGI (RXF 393 renal): 0.879 µM | GI50 (SF-268 CNS): 0.428 µM | TGI (SF-268 CNS): 2.72 µM | GI50 (SF-295 CNS): 0.27 µM | GI50 (SK-MEL-2 melanoma): 0.978 µM | TGI (SK-MEL-2 melanoma): 5.64 µM | GI50 (SK-MEL-28 melanoma): 0.71 µM | TGI (SK-MEL-28 melanoma): 3.06 µM | GI50 (SK-MEL-5 melanoma): 0.242 µM | TGI (SK-MEL-5 melanoma): 0.715 µM | GI50 (SK-OV-3 ovarian): 0.441 µM | TGI (SK-OV-3 ovarian): 18.5 µM | GI50 (SN12C renal): 0.368 µM | TGI (SN12C renal): 20.6 µM | GI50 (SNB-19 CNS): 0.405 µM | TGI (SNB-19 CNS): 16 µM | GI50 (SNB-75 CNS): 0.403 µM | TGI (SNB-75 CNS): 8.11 µM | GI50 (SR leukemia): 0.31 µM | TGI (SR leukemia): > 100 µM | GI50 (SW-620 colon): 0.396 µM | TGI (SW-620 colon): 10.8 µM | GI50 (T-47D breast): 1.73 µM | TGI (T-47D breast): 5.87 µM | GI50 (TK-10 renal): 1.13 µM | TGI (TK-10 renal): 5.51 µM | GI50 (U251 CNS): 0.34 µM | TGI (U251 CNS): 2.02 µM | GI50 (UACC-257 melanoma): 1.07 µM | TGI (UACC-257 melanoma): 3.69 µM | GI50 (UACC-62 melanoma): 0.515 µM | TGI (UACC-62 melanoma): 22.1 µM | GI50 (UO-31 renal): 0.366 µM | TGI (UO-31 renal): 3.85 µM

Oc1ccc2c(c1)-c1c(c3cc(O)ccc3n1CCN1CCOCC1)CC2
TGI (786-0 renal): 53.3 µM | TGI (A498 renal): 60 µM | TGI (A549 NSCLC): > 100 µM | TGI (ACHN renal): > 100 µM | TGI (BT-549 breast): 38.2 µM | TGI (CAKI-1 renal): 70.5 µM | TGI (CCRF-CEM leukemia): 68.7 µM | TGI (COLO 205 colon): 32.2 µM | TGI (DU-145 prostate): > 100 µM | TGI (EKVX NSCLC): > 100 µM | TGI (HCC-2998 colon): 32.6 µM | TGI (HCT-116 colon): 44.8 µM | TGI (HCT-15 colon): 45.4 µM | TGI (HL-60(TB) leukemia): 49.3 µM | TGI (HOP-62 NSCLC): 72.7 µM | TGI (HOP-92 NSCLC): > 100 µM | TGI (HS 578T breast): > 100 µM | TGI (HT29 colon): 59.8 µM | TGI (IGROV1 ovarian): > 100 µM | TGI (K-562 leukemia): 41 µM | TGI (KM12 colon): > 100 µM | TGI (LOX IMVI melanoma): 35.7 µM | TGI (M14 melanoma): 50.1 µM | TGI (MCF7 breast): 57.8 µM | TGI (MDA-MB-231 breast): 44.1 µM | TGI (MDA-MB-435): 48.8 µM | TGI (MOLT-4 leukemia): 60.4 µM | TGI (NCI-H226 lung): 41.4 µM | TGI (NCI-H23 lung): 73.5 µM | TGI (NCI-H522 lung): 40.4 µM | TGI (NCI/ADR-RES ovarian): 73.9 µM | TGI (OVCAR-3 ovarian): 61.8 µM | TGI (OVCAR-4 ovarian): 67.2 µM | TGI (OVCAR-5 ovarian): > 100 µM | TGI (OVCAR-8 ovarian): 86.8 µM | TGI (PC-3 prostate): 54.4 µM | TGI (RPMI-8226 leukemia): > 100 µM | TGI (RXF 393 renal): 75.8 µM | TGI (SF-268 CNS): > 100 µM | TGI (SF-295 CNS): 47.2 µM | TGI (SF-539 CNS): 76 µM | TGI (SK-MEL-2 melanoma): 37.7 µM | TGI (SK-MEL-28 melanoma): 61.9 µM | TGI (SK-MEL-5 melanoma): 30.6 µM | TGI (SK-OV-3 ovarian): 81.2 µM | TGI (SN12C renal): > 100 µM | TGI (SNB-19 CNS): > 100 µM | TGI (SNB-75 CNS): 58.5 µM | TGI (SR leukemia): 61.8 µM | TGI (SW-620 colon): 71.2 µM | TGI (T-47D breast): > 100 µM | TGI (TK-10 renal): > 100 µM | TGI (U251 CNS): 49 µM | TGI (UACC-257 melanoma): > 100 µM | TGI (UACC-62 melanoma): 32.9 µM | TGI (UO-31 renal): 57.9 µM
